These results are taken from article PMC8550792, “Evolution of kinase polypharmacology across HSP90 drug discovery” (Cell Chemical Biology, 2021).

Common to all, as to assay: biochemical
Assay type in all cases: biochemical

Test [1] addresses T1, 382 unique human kinases (Homo sapiens, UniProt O75385).
T1 construct: purchased Reaction Biology (HotSpot contract assay)
T1 sequence (O75385 1-1050): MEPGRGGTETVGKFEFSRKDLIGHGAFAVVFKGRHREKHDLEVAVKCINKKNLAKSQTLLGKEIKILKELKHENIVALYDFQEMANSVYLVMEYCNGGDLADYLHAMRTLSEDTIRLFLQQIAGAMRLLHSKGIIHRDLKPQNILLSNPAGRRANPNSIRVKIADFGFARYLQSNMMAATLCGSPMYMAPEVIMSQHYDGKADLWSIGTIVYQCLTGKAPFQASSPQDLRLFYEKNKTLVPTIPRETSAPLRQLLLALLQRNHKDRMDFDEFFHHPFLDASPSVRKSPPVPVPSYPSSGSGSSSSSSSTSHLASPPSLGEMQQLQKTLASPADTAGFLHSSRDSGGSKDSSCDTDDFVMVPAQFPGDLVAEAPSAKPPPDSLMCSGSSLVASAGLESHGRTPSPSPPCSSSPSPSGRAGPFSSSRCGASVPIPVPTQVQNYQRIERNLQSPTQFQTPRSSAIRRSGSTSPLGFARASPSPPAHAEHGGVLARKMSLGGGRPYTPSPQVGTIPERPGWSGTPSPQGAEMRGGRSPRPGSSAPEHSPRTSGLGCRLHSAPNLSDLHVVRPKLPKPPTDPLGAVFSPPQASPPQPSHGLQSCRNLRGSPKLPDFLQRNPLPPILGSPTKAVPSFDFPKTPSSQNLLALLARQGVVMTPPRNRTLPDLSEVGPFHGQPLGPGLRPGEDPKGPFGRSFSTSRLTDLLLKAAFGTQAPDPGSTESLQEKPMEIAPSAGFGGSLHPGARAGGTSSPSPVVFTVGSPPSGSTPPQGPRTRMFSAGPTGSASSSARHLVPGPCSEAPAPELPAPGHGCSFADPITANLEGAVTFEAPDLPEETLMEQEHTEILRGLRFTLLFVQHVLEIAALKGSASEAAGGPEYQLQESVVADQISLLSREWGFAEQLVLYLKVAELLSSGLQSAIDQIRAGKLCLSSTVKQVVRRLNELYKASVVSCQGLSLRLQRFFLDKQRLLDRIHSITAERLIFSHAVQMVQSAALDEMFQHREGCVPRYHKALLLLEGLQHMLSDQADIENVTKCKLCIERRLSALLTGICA
The note with it: ULK1, 10 uM; for remaining activity at 10 µM: read-out: % Enzyme Activity (relative to DMSO controls).

The target of test [2] is T2, 382 unique human kinases (Homo sapiens, UniProt O96017, I157T).
T2 construct: purchased Reaction Biology (HotSpot contract assay)
Conditions: CHK2 (I157T), 10 uM; for remaining activity at 10 µM: read-out: % Enzyme Activity (relative to DMSO controls).

Test [3] addresses T3, 382 unique human kinases (Homo sapiens, UniProt P08581).
T3 construct: purchased Reaction Biology (HotSpot contract assay)
The note with it: kinase c-MET, compound 10 uM; for remaining activity at 10 µM: read-out: % Enzyme Activity (relative to DMSO controls).

The target of test [4] is T4, 382 unique human kinases (Homo sapiens, UniProt P22455, V550M).
T4 construct: purchased Reaction Biology (HotSpot contract assay)
Conditions: FGFR4 (V550M), 10 uM; for remaining activity at 10 µM: read-out: % Enzyme Activity (relative to DMSO controls).

Test [5] has as its target T5, 382 unique human kinases (Homo sapiens, UniProt P22607).
T5 construct: purchased Reaction Biology (HotSpot contract assay)
The note with it: FGFR3, 10 uM; for remaining activity at 10 µM: read-out: % Enzyme Activity (relative to DMSO controls).

Test [6] has as its target T6, 382 unique human kinases (Homo sapiens, UniProt P22607, G697C).
T6 construct: purchased Reaction Biology (HotSpot contract assay)
Conditions: FGFR3 (G697C), 10 uM; for remaining activity at 10 µM: read-out: % Enzyme Activity (relative to DMSO controls).

Test [7] addresses T7, 382 unique human kinases (Homo sapiens, UniProt Q02763, Y1108F).
T7 construct: purchased Reaction Biology (HotSpot contract assay)
The note with it: kinase TIE2 (Y1108F), compound 10 uM; for remaining activity at 10 µM: read-out: % Enzyme Activity (relative to DMSO controls).

Test [8] has as its target T8, 382 unique human kinases (Homo sapiens, UniProt Q13163).
T8 construct: purchased Reaction Biology (HotSpot contract assay)
T8 sequence (Q13163 1-448): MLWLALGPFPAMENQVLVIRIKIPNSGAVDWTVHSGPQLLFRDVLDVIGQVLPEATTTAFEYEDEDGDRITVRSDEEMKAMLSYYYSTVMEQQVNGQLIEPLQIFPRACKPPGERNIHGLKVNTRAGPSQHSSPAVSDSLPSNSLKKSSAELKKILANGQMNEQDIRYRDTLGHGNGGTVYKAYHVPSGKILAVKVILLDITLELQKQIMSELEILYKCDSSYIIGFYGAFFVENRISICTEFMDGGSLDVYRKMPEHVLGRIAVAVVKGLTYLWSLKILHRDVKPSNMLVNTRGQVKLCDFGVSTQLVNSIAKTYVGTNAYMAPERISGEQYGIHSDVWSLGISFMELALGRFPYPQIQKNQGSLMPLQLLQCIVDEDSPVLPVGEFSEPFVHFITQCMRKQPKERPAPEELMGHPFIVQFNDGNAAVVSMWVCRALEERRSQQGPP
The note with it: MEK5, 10 uM; for remaining activity at 10 µM: read-out: % Enzyme Activity (relative to DMSO controls).

Test [9] concerns the target T9, 382 unique human kinases (Homo sapiens, UniProt P05771).
T9 construct: purchased Reaction Biology (HotSpot contract assay)
Conditions: PKCb1, 10 uM; for remaining activity at 10 µM: read-out: % Enzyme Activity (relative to DMSO controls).

The target in test [10] is T10, 382 unique human kinases (Homo sapiens, UniProt P49761).
T10 construct: purchased Reaction Biology (HotSpot contract assay)
The note with it: CLK3, [ATP] 30 µM, compound 10 uM; for remaining activity at 10 µM: read-out: % Enzyme Activity (relative to DMSO controls).

For test [11], the target named is T11, 382 unique human kinases (Homo sapiens, UniProt Q08345).
T11 construct: purchased Reaction Biology (HotSpot contract assay)
The note with it: DDR1, [ATP] 100 µM.

Test [12] concerns the target T12, 382 unique human kinases (Homo sapiens, UniProt Q8N752).
T12 construct: purchased Reaction Biology (HotSpot contract assay)
T12 sequence (Q8N752 1-337): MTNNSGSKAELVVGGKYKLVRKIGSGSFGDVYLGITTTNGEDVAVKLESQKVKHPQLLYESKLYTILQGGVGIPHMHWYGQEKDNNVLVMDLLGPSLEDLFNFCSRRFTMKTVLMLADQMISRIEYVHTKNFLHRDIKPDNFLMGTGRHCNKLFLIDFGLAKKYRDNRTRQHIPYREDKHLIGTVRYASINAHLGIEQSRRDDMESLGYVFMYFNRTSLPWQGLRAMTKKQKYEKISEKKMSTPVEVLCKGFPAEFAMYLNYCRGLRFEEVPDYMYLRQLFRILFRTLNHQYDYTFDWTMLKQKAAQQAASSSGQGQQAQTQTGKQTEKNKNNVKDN
Conditions: CK1a1L, 10 uM; for remaining activity at 10 µM: read-out: % Enzyme Activity (relative to DMSO controls).

Test [13] addresses T13, 382 unique human kinases (Homo sapiens, UniProt Q9UM73, G1202R).
T13 construct: purchased Reaction Biology (HotSpot contract assay)
The note with it: ALK (G1202R), [ATP] 20 µM, compound 10 uM; for remaining activity at 10 µM: read-out: % Enzyme Activity (relative to DMSO controls).

Setting [14] is: compound 10 uM, read-out: % Enzyme Activity (relative to DMSO controls).

T13 sequence (Q9UM73 19-1620 G1202R): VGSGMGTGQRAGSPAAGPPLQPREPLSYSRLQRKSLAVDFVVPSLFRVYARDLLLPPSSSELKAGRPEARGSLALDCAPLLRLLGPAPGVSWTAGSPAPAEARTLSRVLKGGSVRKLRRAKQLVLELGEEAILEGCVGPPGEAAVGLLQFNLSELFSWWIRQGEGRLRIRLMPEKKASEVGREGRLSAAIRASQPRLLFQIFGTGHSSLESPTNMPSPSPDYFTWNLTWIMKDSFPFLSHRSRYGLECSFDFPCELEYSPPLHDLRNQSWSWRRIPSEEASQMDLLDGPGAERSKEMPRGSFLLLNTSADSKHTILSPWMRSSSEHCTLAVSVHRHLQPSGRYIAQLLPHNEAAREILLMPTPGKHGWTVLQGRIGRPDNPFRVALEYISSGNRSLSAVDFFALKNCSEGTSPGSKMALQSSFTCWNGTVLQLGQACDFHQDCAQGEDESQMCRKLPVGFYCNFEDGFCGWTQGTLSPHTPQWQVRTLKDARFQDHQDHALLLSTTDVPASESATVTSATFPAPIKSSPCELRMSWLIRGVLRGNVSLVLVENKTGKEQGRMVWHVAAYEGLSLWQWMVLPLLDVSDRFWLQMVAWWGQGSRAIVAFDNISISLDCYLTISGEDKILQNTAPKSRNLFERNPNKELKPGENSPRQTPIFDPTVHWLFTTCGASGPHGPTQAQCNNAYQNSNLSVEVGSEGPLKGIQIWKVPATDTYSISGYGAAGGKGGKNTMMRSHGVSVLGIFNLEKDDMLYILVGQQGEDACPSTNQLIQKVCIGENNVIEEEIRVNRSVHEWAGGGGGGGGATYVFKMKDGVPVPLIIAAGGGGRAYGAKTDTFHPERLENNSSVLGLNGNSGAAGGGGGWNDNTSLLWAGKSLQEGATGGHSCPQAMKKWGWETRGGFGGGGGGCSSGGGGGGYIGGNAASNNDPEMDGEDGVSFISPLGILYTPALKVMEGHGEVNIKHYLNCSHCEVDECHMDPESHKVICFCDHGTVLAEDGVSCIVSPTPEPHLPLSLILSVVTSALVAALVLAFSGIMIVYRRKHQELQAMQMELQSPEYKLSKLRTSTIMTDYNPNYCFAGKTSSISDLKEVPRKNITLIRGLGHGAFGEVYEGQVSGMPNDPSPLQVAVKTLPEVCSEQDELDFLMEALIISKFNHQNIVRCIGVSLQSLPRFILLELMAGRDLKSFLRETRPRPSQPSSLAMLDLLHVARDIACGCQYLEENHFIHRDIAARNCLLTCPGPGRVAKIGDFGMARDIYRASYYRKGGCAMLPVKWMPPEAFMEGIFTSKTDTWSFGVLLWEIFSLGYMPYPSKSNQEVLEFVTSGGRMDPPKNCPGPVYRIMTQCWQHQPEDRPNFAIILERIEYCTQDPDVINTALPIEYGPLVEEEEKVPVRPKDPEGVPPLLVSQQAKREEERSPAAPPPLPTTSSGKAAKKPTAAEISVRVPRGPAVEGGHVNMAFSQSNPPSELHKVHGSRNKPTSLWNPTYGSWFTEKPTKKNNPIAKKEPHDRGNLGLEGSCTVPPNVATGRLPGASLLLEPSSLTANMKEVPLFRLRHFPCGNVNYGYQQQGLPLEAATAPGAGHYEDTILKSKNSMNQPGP
T2 sequence (O96017 whole entry I157T): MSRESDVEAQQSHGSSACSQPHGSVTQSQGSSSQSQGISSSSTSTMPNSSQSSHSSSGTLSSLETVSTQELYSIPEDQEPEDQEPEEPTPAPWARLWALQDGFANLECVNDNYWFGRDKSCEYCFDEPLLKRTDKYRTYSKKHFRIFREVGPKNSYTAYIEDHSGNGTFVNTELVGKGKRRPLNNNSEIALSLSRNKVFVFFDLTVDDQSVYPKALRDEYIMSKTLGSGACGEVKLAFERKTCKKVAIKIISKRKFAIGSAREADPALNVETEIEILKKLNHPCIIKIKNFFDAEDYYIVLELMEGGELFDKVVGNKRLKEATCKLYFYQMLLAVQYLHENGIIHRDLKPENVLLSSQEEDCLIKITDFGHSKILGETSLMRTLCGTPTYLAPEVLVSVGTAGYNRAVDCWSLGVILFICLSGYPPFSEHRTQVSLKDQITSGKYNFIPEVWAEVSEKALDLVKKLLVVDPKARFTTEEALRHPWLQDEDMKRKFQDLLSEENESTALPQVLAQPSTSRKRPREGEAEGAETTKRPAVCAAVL
T7 sequence (Q02763 23-1124 Y1108F): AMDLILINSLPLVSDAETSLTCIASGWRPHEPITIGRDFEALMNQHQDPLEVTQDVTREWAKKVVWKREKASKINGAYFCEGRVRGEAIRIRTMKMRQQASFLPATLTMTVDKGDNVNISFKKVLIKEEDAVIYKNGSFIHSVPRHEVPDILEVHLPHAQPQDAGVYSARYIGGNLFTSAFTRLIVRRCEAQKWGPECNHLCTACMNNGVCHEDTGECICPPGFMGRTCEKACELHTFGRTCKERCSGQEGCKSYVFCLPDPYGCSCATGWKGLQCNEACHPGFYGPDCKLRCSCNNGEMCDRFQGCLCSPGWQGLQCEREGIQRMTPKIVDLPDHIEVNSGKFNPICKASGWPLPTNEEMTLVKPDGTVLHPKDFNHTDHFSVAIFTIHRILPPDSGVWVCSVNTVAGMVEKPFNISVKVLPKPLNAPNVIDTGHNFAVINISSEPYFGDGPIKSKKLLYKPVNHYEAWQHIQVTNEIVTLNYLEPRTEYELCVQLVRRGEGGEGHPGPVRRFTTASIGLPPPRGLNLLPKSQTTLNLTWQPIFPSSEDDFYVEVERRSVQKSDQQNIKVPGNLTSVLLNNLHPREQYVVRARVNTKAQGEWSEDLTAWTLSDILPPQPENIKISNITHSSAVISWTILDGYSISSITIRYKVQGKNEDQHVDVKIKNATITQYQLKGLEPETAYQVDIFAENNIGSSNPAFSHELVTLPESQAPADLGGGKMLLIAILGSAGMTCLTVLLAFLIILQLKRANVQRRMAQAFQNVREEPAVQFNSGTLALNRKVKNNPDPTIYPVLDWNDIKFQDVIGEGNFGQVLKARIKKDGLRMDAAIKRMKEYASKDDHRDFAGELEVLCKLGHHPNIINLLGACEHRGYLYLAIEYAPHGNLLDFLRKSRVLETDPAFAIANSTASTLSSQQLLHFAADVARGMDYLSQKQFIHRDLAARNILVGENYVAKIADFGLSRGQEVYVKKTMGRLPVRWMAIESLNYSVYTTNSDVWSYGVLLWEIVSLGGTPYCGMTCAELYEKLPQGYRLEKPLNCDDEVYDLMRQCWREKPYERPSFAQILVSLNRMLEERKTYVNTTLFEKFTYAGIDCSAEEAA
T9 sequence (P05771 whole entry): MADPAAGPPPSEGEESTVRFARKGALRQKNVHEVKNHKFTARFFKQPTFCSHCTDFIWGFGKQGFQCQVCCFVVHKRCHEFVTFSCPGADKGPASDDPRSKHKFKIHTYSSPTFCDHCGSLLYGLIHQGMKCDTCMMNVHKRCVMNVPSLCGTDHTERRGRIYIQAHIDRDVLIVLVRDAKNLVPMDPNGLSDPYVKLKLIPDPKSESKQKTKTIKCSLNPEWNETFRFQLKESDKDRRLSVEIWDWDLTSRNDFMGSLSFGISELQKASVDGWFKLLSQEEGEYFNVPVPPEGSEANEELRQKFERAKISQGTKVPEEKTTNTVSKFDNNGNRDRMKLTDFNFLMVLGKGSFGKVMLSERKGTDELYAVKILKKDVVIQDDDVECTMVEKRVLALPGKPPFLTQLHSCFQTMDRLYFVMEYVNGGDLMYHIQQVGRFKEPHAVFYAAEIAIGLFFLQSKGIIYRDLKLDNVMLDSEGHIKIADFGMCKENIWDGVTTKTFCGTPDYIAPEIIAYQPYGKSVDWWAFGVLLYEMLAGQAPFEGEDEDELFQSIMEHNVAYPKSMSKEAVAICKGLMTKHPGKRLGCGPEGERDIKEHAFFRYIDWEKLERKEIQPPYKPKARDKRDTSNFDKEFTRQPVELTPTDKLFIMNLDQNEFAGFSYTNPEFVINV
T10 sequence (P49761 whole entry): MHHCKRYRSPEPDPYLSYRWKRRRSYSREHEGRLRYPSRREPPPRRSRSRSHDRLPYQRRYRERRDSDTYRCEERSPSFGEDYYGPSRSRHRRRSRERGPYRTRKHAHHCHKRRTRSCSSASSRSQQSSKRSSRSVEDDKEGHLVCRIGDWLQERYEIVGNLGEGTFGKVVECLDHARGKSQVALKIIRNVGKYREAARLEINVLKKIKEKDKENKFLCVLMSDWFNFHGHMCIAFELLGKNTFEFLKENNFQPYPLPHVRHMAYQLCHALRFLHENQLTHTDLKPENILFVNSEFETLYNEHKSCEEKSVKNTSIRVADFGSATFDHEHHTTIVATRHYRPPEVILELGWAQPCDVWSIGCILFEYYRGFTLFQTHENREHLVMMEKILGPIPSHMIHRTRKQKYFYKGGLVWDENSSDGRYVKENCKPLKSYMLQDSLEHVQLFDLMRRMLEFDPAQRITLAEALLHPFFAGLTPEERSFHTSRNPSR

As to `CC(C)c1cc(-c2n[nH]c(=O)n2-c2ccc3c(ccn3C)c2)c(O)cc1O` [Ganetespib (STA9090)], the remaining activity at 10 µM in test [1] turned out to be 73%; in test [2], 76.6%; in test [3] it was 82.2%; in test [4], 85.2%; in test [5], 62.6%; in test [6], 61.9%. Also, the values for the remaining activity at 10 µM in [7] and in test [8] were 90% and 65.3%, respectively.
With `CC(C)c1cc(-c2n[nH]c(=O)n2-c2ccc3c(ccn3C)c2)c(O)cc1O` [Ganetespib], the remaining activity at 10 µM in [9] stood at 109%; in test [10], 39%; in test [11] (setting [14]) it was 4.12%; in test [12], 98.3%; in test [13] it was 52.8%. In test [11] (compound 1 uM, read-out: % Enzyme Activity (relative to DMSO controls)), the remaining activity at 1 µM turned out to be 8.59%.
Turning to `CCNC(=O)c1noc(-c2cc(C(C)C)c(O)cc2O)c1-c1ccc(CN2CCOCC2)cc1` [Luminespib (AUY-922)], the “% Enzyme Activity (relative to DMSO controls)” value in [1] is reported as 102.69%; in test [2] it was 100.31%; in test [3], 99.56%; in test [4], 64.75%; in [5], 96.41%; in test [6], 102.74%. Further, the “% Enzyme Activity (relative to DMSO controls)” value in test [7] is recorded as 108.40%; in test [8], 99.65%. In addition, the remaining activity at 10 µM in test [1] turned out to be 104%; in test [2], 102%; in test [3] it was 105%; in test [4], 72.2%; in test [5], 97.2%; in [6], 104%. Besides, the results for the remaining activity at 10 µM in [7] and in test [8] were 110% and 100%, respectively.
Take `CCNC(=O)c1noc(-c2cc(C(C)C)c(O)cc2O)c1-c1ccc(CN2CCOCC2)cc1` [Luminespib]: the “% Enzyme Activity (relative to DMSO controls)” value is 93.07% in test [9]; 45.99% in test [10]; 84.86% in [11] (compound 10 uM); 99.86% in [12]; 100.40% in [13]. Further, the remaining activity at 10 µM in test [9] stood at 93.8%; in test [10], 46.6%; in [11] (setting [14]), 85.9%; in [12], 100%; in test [13] it was 104%.
